The text below walks through data of patent US20240132492A1, “PYRIDOPYRIMIDINE-BASED COMPOUND AND APPLICATION THEREOF” (JINAN UNIVERSITY, priority 2021, published 2024).

Holding throughout (assay type): cell-based
The target in one test is AKT3 (Homo sapiens, UniProt Q9Y243). Briefly: Western Blot, degradation of AKT3 protein in H1975-OR cells. More on the design: endogenous in cells; host or cells: H1975-OR (osimertinib-resistant H1975). The note with it: 24 hours, maximum degradation rate; for Dmax at 1 µM: 1000 nM. A digest of the protocol:
(§1)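 H1975-OR cells are Osimertinib-resistant H1975, adapted stepwise from 50 nM to 3 μM Osimertinib. Cells were treated with compound for 24 h, lysed, and immunoblotted with ECL detection. Band grayscale density was quantified.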

Another test relates to A431. Put plainly: CCK-8 tumor cell proliferation, A431. The note with it: 72 hours. As to the method:
(§2) Tumor cells (see Table 2 to Table 5) were inoculated in 96-well plates in complete culture medium (2000-3000 cells/well). After overnight incubation, the compounds with different concentrations (0.000508 μM-10 μM) were used to treat the cells separately for 72 hours. CCK-8 (Cell Counting Kit 8, Dojindo Laboratories, Kumamoto, Japan) experiment was used to evaluate cell proliferation. GraphPad Prism 5.0 software (La Jolla, CA) was used to calculate the half-maximal inhibitory concentration (IC50) values by fitting the concentration response curve. Each IC50 value was represented as an average value±SD.

The test system of another test is H1975OR. Briefly: CCK-8 tumor cell proliferation, H1975OR. The note with it: H1975OR cells (Osimertinib resistant), 72 hours. The essentials:
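Osimertinib-resistant H1975 cells, selected by raising Osimertinib stepwise from 50 nM to 3 μM, were treated for 72 h with compound at 0.000508–10 μM. Proliferation was read by CCK-8, and IC50 came from fitting the concentration–response curve, given as mean ± SD.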

The subject of the next test is PC-9. Briefly: CCK-8 tumor cell proliferation, PC-9. The note with it: PC-9 cells, 72 hours. As to the method: as §2
The next test deals with H1299. Briefly: CCK-8 tumor cell proliferation, H1299. The note with it: 72 hours. As to the method: as §2
The subject of the next test is HCC827. Briefly: CCK-8 tumor cell proliferation, HCC827. The following applies: HCC827 cells, 72 hours. How it is done:
as §2

The target of another test is T1, AKT1 (Homo sapiens, UniProt P31749).
T1 construct: AKT1, AKT2, and AKT3 proteins in H1975-OR cells; endogenous in cells; host or cells: H1975-OR (osimertinib-resistant H1975)
Put plainly: Western Blot, degradation of AKT1 protein in H1975-OR cells. The note with it: 24 hours, maximum degradation rate; for Dmax at 1 µM: 1000 nM. The essentials:
as §1
For orientation: A western blot detects proteins with antibodies after separation by electrophoresis.

A further test has as its system H1975. Briefly: CCK-8 tumor cell proliferation, H1975. The note with it: 72 hours. The essentials: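 Steps: plate 2000-3000 cells/well in complete medium; incubate overnight; add compound, 0.000508 μM-10 μM, 72 h; assess proliferation with CCK-8; fit curves for IC50, expressed as mean±SD.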
A further test deals with T2, AKT2 (Homo sapiens, UniProt P31751).
T2 construct: AKT1, AKT2, and AKT3 proteins in H1975-OR cells; endogenous in cells; host or cells: H1975-OR (osimertinib-resistant H1975)
Put plainly: Western Blot, degradation of AKT2 protein in H1975-OR cells. The note with it: 24 hours, maximum degradation rate; for Dmax at 1 µM: 1000 nM. A digest of the protocol:
as §1

The next test relates to Huh7. Briefly: CCK-8 tumor cell proliferation, Huh7. The note with it: Homo sapiens, Huh-7, Huh7 cells, 72 hours. As to the method:
as §2

The next test has as its system BT-549. Briefly: CCK-8 tumor cell proliferation, BT-549. The note with it: Homo sapiens, BT-549 cells, 72 hours. As to the method: as §2
Where [1] appears, read: Homo sapiens, A-431, A431 cells.
The mark [2] stands for this setting: Homo sapiens, NCI-H1299, H1299 cells.
Where [3] appears, read: Homo sapiens, NCI-H1975, H1975 cells.

Where only a bound is given, the exact number is not on record here.

T1 sequence (P31749 whole entry): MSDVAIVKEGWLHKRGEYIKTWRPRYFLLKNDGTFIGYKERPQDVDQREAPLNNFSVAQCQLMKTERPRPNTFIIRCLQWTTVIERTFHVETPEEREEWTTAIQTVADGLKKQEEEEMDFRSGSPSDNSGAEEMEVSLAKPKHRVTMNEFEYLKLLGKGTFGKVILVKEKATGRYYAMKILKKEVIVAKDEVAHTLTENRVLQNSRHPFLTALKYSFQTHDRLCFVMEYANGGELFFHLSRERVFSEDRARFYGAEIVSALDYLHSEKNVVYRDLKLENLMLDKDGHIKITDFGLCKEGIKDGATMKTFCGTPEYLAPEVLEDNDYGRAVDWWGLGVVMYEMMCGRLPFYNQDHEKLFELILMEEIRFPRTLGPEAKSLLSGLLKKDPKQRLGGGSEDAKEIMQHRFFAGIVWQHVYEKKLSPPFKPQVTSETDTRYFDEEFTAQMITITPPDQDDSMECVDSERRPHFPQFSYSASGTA
Chain of AKT3 (Q9Y243 whole entry): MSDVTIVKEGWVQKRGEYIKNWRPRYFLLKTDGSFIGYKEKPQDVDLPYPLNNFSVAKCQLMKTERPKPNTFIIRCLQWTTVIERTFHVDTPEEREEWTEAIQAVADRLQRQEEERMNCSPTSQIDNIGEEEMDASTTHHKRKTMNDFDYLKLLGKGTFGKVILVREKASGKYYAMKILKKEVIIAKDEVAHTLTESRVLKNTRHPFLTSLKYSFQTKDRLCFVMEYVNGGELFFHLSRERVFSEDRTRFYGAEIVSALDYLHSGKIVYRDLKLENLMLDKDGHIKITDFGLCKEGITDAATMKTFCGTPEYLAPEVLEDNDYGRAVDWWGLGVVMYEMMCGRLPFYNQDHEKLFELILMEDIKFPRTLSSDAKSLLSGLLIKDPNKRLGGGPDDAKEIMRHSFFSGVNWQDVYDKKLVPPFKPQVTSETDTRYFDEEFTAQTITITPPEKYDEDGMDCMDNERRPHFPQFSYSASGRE
T2 sequence (P31751 whole entry): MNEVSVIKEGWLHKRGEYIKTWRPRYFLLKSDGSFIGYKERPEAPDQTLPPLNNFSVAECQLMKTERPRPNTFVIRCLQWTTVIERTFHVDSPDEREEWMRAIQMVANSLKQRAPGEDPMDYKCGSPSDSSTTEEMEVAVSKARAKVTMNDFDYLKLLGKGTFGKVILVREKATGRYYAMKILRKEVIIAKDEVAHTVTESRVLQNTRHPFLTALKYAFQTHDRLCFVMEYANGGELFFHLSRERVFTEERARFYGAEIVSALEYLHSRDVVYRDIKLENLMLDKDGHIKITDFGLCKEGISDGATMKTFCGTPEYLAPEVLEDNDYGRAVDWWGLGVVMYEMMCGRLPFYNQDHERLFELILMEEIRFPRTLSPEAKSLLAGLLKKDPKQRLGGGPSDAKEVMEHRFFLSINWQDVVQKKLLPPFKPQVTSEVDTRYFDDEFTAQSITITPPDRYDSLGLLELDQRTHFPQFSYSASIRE

On to `C=CC(=O)Nc1cccc(-n2c(=O)cc(C)c3cnc(Nc4ccc(N5CCN(C(=O)CCCCCCCCCCCNC(=O)CC67CC8CC(CC(C8)C6)C7)CC5)cc4OC)nc32)c1` [ZX-HYT-07, N-(3-(2-((4-(4-(12-(2-((3R, 5R, 7R)-adamantan-1-yl)acetylamino)dodecanoyl)piperazin-1-yl)-2-methoxyphenyl)amino)-5-methyl-7-oxypyridino [2,3-d]pyrimidin-8 (7H)-yl)phenyl) acrylamide], for which, at AKT3, the “Dmax (%) at 1000 nM AKT3” value is on record as 69.2%. Moreover, the IC50 – broadly, the midpoint of a concentration-inhibition curve – was found to be 0.0839 ± 0.0133 µM in the test with A431 (A431 cells); 0.417 ± 0.08 µM in the test on H1975OR; 6.79 ± 3.6 µM with PC-9; 1.46 ± 0.428 µM in the test with H1299 (H1299 cells); 0.882 ± 0.0945 µM in the test with HCC827; 5.07 ± 0.836 µM with H1975 (H1975 cells). Besides, the “Dmax (%) at 1000 nM AKT1” value at AKT1 stood at 0%. Besides, the “Dmax (%) at 1000 nM AKT2” value on AKT2 was determined as 0%.
For `CCC(=O)Nc1cccc(-n2c(=O)cc(C)c3cnc(Nc4ccc(N5CCN(CCCCCCCCCCCCNC(=O)CC67CC8CC(CC(C8)C6)C7)CC5)cc4OC)nc32)c1` [ZX-HYT-08, N-(3-(2-((4-(4-(12-(2-((3R, 5R, 7R)-adamantan-1-yl)acetylamino)dodecyl)piperazin-1-yl)-2-methoxyphenyl)amino)-5-methyl-7-oxypyridino [2,3-d]pyrimidin-8 (7H)-yl)phenyl) propionamide], the Dmax (in general, the largest share of the target that was removed) at 1 µM on AKT3 was 66.8%; on AKT1, 0%; at AKT2, 0%. Also, the IC50 is 0.00986 ± 0.0022 µM with A431 (setting [1]); 0.0107 ± 0.003 µM in the test with H1975OR; 0.109 ± 0.019 µM in the test with PC-9 (Homo sapiens); 0.212 ± 0.0153 µM with H1299 (setting [2]); 0.157 ± 0.0679 µM with HCC827 (Homo sapiens); 8.47 µM in the test on H1975 (setting [3]).
Regarding `COc1cc(N2CCN(CCCCCCCCCCCCNC(=O)CC34CC5CC(CC(C5)C3)C4)CC2)ccc1Nc1ncc2c(C)cc(=O)n(-c3cccc(NC(C)=O)c3)c2n1` [ZX-HYT-09, N-(12-(4-(4-((8-(3-acetylaminophenyl)-5-methyl-7-oxy-7,8-dihydropyridino [2,3-d]pyrimidin-2-yl]amino)-3-methoxyphenyl)piperazin-1-yl)dodecyl)-2-((3R, 5R, 7R)-adamantan-1-yl) acetamide], the greatest degradation seen (Dmax) at 1 µM on AKT3 worked out at 75.7%; on AKT1, 0%; on AKT2, 0%. Further, the IC50 was 0.0106 ± 0.002 µM with A431 (setting [1]); 0.0236 ± 0.00351 µM in the test with H1975OR; 0.215 ± 0.0636 µM in the test on PC-9 (Homo sapiens); 0.624 ± 0.0448 µM in the test on H1299 (setting [2]); 0.134 ± 0.064 µM with HCC827 (Homo sapiens); 0.119 ± 0.0112 µM in the test on H1975 (setting [3]).
`COc1cc(N2CCN(CCCCCCCCCCCCNC(=O)CC34CC5CC(CC(C5)C3)C4)CC2)ccc1Nc1ncc2c(C)cc(=O)n(-c3cccc(NC(=O)C(C)C)c3)c2n1` [ZX-HYT-10, N-(3-(2-((4-(4-(12-(2-(((3R, 5R, 7R)-adamantan-1-yl)acetylamino)dodecyl)piperazin-1-yl)-2-methoxyphenyl)amino)-5-methyl-7-oxypyridino [2,3-d]pyrimidin-8 (7H)-yl)phenyl)isobutylamide]: the greatest degradation seen (Dmax) at 1 µM on AKT3 turned out to be 57.1%; on AKT1, 0%; at AKT2, 25.3%. Also, the IC50 with A431 (setting [1]) came to 0.0517 µM; with H1975OR, 0.0196 ± 0.00141 µM; in the test on PC-9 (Homo sapiens), 0.126 ± 0.0177 µM; with H1299 (setting [2]), 1.81 ± 0.395 µM; with HCC827 (Homo sapiens), 0.309 ± 0.139 µM; with H1975 (setting [3]), 0.142 ± 0.0494 µM.
In the case of `COc1cc(N2CCN(CCCCCCCCCCCCNC(=O)CC34CC5CC(CC(C5)C3)C4)CC2)ccc1Nc1ncc2c(C)cc(=O)n(-c3cccc(NC(=O)C(C)(C)C)c3)c2n1` [ZX-HYT-12], the Dmax at 1 µM on AKT3 amounted to 75.4%; at AKT1 it was 56%; on AKT2, 0%. Also, the IC50 with A431 (setting [1]) amounted to 0.155 ± 0.0075 µM; in the test on H1975OR, 0.136 ± 0.0165 µM; in the test on PC-9 (Homo sapiens), 0.466 ± 0.0241 µM; in the test with H1299 (setting [2]) it was 2.17 ± 0.419 µM; in the test on HCC827 (Homo sapiens), 0.549 ± 0.247 µM; with H1975 (setting [3]), 0.554 ± 0.213 µM.
As for `COc1cc(N2CCN(CCCCCCCCCCCCNC(=O)CC34CC5CC(CC(C5)C3)C4)CC2)ccc1Nc1ncc2c(C)cc(=O)n(-c3cccc(N)c3)c2n1` [ZX-HYT-17, 2-((3R, 5R, 7R)-adamantan-1-yl)-N-(12-(4-(4-(8-(3-aminophenyl)-5-methyl-7-oxy-7,8-dihydropyridino [2,3-d]pyrimidin-2-yl)amino)-3-methoxyphenyl)piperazin-1-yl) dodecyl) acetamide], the maximal degradation (Dmax) at 1 µM at AKT3 came out at 76.4%; at AKT1, 46.4%; at AKT2 it was 45.9%. The half-inhibitory concentration (IC50) with A431 (setting [1]) worked out at 0.0225 ± 0.0035 µM; in the test on H1975OR it was 0.023 ± 0.007 µM; in the test on PC-9 (Homo sapiens), 0.0234 ± 0.00578 µM; in the test with H1299 (setting [2]) it was 2.1 ± 0.049 µM; in the test with HCC827 (Homo sapiens), 0.186 ± 0.122 µM; in the test with H1975 (setting [3]) it was 0.214 ± 0.013 µM.
On to `COc1nc(N2CCN(C(=O)CC34CC5CC(CC(C5)C3)C4)CC2)ccc1Nc1ncc2c(C)cc(=O)n(-c3cccc(NC(=O)C4CC4)c3)c2n1` [ZX-HYT-67, N-(3-(2-(6-(4-(2-((3R, 5R, 7R)-adamantan-1-yl)acetyl)piperazin-1-yl)-2-methoxypyridin-3-yl))amino)-5-methyl-7-oxypyridino [2,3-d] pyrimidin-8 (7H)-yl) phenyl) cyclopropane formamide], for which the figures for the IC50 in the test on Huh7 and with BT-549 were over 10 µM and 0.376 µM, respectively.
For `COc1nc(N2CCN(C(=O)NC34CC5CC(CC(C5)C3)C4)CC2)ccc1Nc1ncc2c(C)cc(=O)n(-c3cccc(NC(=O)C4CC4)c3)c2n1` [ZX-HYT-68, N-((3S, 5S, 7S)-adamantan-1-yl)-4-(5-((8-(3-(cyclopropaneformamido)phenyl)-5-methyl-7-oxy-7,8-dihydropyridino [2,3-d]pyrimidin-2-yl)amino)-6-methoxypyridin-2-yl) piperazin-1-formamide] the same measures were over 10 µM and 0.0386 µM.
For `COc1nc(N2CCN(C(=O)C34CC5CC(CC(C5)C3)C4)CC2)ccc1Nc1ncc2c(C)cc(=O)n(-c3cccc(NC(=O)C4CC4)c3)c2n1` [ZX-HYT-69, N-(3-(2-((6-(4-((3R, 5R, 7R)-adamantan-1-carbonyl)piperazin-1-yl)-2-methoxypyridin-3-yl)amino)-5-methyl-7-oxypyridino [2,3-d]pyrimidin-8 (7H)-yl)phenyl) cyclopropane formamide] the same measures were over 10 µM and 3 µM.
Take `COc1cc(N2CCN(C(=O)CC34CC5CC(CC(C5)C3)C4)CC2)ncc1Nc1ncc2c(C)cc(=O)n(-c3cccc(NC(=O)C4CC4)c3)c2n1` [ZX-HYT-70, N-(3-(2-((6-(4-(2-((3R, 5R, 7R)-adamantan-1-yl)acetyl)piperazin-1-yl)-4-methoxypyridin-3-yl))amino)-5-methyl-7-oxypyridino [2,3-d]pyrimidin-8 (7H)-yl) phenyl) cyclopropane formamide]: the IC50 with Huh7 is over 10 µM; with BT-549, 1.02 µM.
For `COc1cc(N2CCN(C(=O)NC34CC5CC(CC(C5)C3)C4)CC2)ncc1Nc1ncc2c(C)cc(=O)n(-c3cccc(NC(=O)C4CC4)c3)c2n1` [ZX-HYT-71, N-((3S, 5S, 7S)-adamantan-1-yl)-4-(5-((8-(3-(cyclopropaneformamido)phenyl)-5-methyl-7-oxy-7,8-dihydropyridino [2,3-d]pyrimidin-2-yl)amino)-4-methoxypyridin-2-yl) piperazin-1-formamide] the same measures were over 10 µM and 1.25 µM.
On to `COc1cc(N2CCN(C(=O)C34CC5CC(CC(C5)C3)C4)CC2)ncc1Nc1ncc2c(C)cc(=O)n(-c3cccc(NC(=O)C4CC4)c3)c2n1` [ZX-HYT-72, N-(3-(2-((6-(4-((3R, 5R, 7R)-adamantan-1-carbonyl)piperazin-1-yl)-4-methoxypyridin-3-yl)amino)-5-methyl-7-oxypyridino [2,3-d]pyrimidin-8 (7H)-yl)phenyl) cyclopropane formamide], for which the values for the IC50 in the test on Huh7 and in the test with BT-549 were 3 µM and 0.626 µM, respectively.
